Laboratory results as given in US9107926B2, “Mutant selectivity and combinations of a phosphoinositide 3-kinase inhibitor compound and chemotherapeutic agents for the treatment of cancer” (Genentech, Inc., priority 2012, dated 2015).

Experiments:
A427 = assay: CellTiter-Glo cell proliferation assay; assay type: cell-based; details: Homo sapiens, A-427, Lung(NSCLC), K-RAS
H460 = assay: CellTiter-Glo cell proliferation assay; assay type: cell-based; details: Homo sapiens, NCI-H460, Lung(NSCLC), KRAS/HEt.545E > K
G96 = assay: CellTiter-Glo cell proliferation assay; assay type: cell-based; details: Glioma, WT
[1] = tested on: 537 MEL melanoma cancer tumor xenografts; assay: In vivo mouse tumor xenograft efficacy; design: species or system mice; details: PO daily (QD), 21 days
Procedure: (§1) Xenografts were initiated with cancer cells. […] Volume was calculated using the formula: […]

[2] = tested on: NCI-H1975 non-small cell lung cancer (NSCLC) tumor xenografts; assay: In vivo mouse tumor xenograft efficacy; design: species or system mice; details: PO daily (QD), 24 day treatment period; versus vehicle
Procedure: as §1

[3] = tested on: KPL4 breast tumor xenografts; assay: In vivo mouse tumor xenograft efficacy; design: species or system mice
Procedure: as §1

[4] = tested on: 22RV1 prostate cancer tumor xenografts; assay: In vivo mouse tumor xenograft efficacy; design: species or system mice; details: PO daily (QD), 24 days
Procedure: as §1

[5] = tested on: PC3 prostate cancer tumor xenografts; assay: In vivo mouse tumor xenograft efficacy; design: species or system mice
Procedure: as §1

[6] = tested on: MCF-7 neo/HER2 breast cancer tumor xenografts; assay: In vivo mouse tumor xenograft efficacy; design: species or system mice; details: for % TGI@ day 21: QD
Procedure: as §1

[7] = tested on: HM-7 colorectal cancer tumor xenografts; assay: In vivo mouse tumor xenograft efficacy; design: species or system mice
Procedure: as §1

22RV1 = assay: CellTiter-Glo cell proliferation assay; assay type: cell-based; details: Homo sapiens, Prostate, Helical-HET.546Q > R
SW1573 = assay: CellTiter-Glo cell proliferation assay; assay type: cell-based; details: Homo sapiens, Lung(NSCLC), K-RAS
H1793 = assay: CellTiter-Glo cell proliferation assay; assay type: cell-based; details: Homo sapiens, NCI-H1793, Lung(NSCLC), WT
ABC-1 = assay: CellTiter-Glo cell proliferation assay; assay type: cell-based; details: Homo sapiens, Lung(NSCLC), WT
HCT116 = assay: CellTiter-Glo cell proliferation assay; assay type: cell-based; details: Homo sapiens, HCT-116, Colon, KRAS/HET.1047H > R
SF539 = assay: CellTiter-Glo cell proliferation assay; assay type: cell-based; details: Homo sapiens, SF-539, Glioma, PTEN
MDA-MB-436 = assay: CellTiter-Glo cell proliferation assay; assay type: cell-based; details: Homo sapiens, Breast, PTEN
HOP62 = assay: CellTiter-Glo cell proliferation assay; assay type: cell-based; details: Homo sapiens, HOP-62, Lung(NSCLC), K-RAS
HCC-1428 = assay: CellTiter-Glo cell proliferation assay; assay type: cell-based; details: Homo sapiens, HCC1428, Breast, WT
H2030 = assay: CellTiter-Glo cell proliferation assay; assay type: cell-based; details: Homo sapiens, NCI-H2030, Lung(NSCLC), K-RAS
TOV21GX1 = assay: CellTiter-Glo cell proliferation assay; assay type: cell-based; details: Ovarian, PTEN/HET.1047H > Y
HCC-1419 = assay: CellTiter-Glo cell proliferation assay; assay type: cell-based; details: Homo sapiens, HCC1419, Breast, WT
A2058 = assay: CellTiter-Glo cell proliferation assay; assay type: cell-based; details: Homo sapiens, Melanoma, PTEN/B-Raf
PI3K alpha H1047R mutant = PI3K alpha H1047R mutant (Homo sapiens, UniProt P42336, H1047R); details: relative to PI3K alpha
Sequence of PI3K alpha H1047R mutant (P42336 whole entry H1047R): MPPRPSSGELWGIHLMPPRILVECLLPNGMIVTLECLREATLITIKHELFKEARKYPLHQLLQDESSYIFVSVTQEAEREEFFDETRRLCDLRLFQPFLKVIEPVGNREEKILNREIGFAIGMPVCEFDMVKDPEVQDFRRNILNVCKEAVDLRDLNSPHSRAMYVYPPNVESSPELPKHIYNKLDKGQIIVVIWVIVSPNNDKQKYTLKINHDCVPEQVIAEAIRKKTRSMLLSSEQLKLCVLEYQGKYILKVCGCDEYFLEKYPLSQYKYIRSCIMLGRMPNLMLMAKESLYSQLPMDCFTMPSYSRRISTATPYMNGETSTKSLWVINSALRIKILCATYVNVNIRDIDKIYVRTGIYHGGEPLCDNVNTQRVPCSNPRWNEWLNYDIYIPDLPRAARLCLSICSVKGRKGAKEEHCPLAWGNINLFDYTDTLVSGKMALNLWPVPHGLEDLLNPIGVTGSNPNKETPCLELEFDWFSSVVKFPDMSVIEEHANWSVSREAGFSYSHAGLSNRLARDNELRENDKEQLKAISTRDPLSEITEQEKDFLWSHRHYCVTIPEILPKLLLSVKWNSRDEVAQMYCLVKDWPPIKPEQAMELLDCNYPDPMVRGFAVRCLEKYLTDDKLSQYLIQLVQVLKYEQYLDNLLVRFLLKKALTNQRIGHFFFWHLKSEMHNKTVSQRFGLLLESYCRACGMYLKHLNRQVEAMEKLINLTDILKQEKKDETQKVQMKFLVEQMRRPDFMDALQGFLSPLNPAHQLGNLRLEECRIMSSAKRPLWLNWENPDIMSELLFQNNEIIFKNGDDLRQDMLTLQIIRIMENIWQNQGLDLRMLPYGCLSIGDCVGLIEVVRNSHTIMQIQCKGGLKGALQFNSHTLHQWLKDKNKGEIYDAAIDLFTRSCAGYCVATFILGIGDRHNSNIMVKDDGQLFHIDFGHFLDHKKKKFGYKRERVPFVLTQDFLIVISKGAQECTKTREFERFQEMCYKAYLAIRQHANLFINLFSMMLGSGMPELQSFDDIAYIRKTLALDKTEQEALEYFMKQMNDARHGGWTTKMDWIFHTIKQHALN
Sequence of PI3K alpha H1047R mutant (P27986 whole entry partner): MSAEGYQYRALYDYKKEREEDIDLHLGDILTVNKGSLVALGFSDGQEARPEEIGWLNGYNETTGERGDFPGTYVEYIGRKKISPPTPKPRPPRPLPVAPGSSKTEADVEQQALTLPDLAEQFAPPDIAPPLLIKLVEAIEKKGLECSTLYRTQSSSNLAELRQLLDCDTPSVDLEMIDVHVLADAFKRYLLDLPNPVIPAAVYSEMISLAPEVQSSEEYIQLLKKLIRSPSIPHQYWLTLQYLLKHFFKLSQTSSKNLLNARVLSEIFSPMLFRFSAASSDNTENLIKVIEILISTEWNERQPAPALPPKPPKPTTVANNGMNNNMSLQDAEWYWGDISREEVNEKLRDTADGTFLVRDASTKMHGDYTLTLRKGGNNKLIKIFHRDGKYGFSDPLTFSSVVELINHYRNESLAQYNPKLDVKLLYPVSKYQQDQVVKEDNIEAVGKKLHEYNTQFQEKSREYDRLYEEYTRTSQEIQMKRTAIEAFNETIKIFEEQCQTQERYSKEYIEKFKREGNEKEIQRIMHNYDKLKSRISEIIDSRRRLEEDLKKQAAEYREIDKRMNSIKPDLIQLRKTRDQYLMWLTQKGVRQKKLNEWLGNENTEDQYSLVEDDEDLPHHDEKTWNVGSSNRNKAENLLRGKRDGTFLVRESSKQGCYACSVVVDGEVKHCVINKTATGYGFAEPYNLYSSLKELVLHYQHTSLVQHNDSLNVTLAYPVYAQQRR
Procedure: After an incubation time of 30 minutes at room temperature, the reactions were stopped by the addition of GRP-1 and PIP3-TAMRA probe (Echelon-Inc., Salt Lake City, Utah.) 100 nM and 5 nM final concentrations respectively. Read with standard cut-off filters for the rhodamine fluorophore (λex=530 nm; λem=590 nm) in 384-well black low volume Proxiplates® (PerkinElmer, Wellesley, Mass.) Fluorescence polarization values were plotted as a function of the protein concentration. EC50 values were obtained by fitting the data to a four-parameter equation using KaleidaGraph® software (Synergy software, Reading, Pa.). This experiment also establishes the appropriate protein concentration to use in subsequent competition experiments with inhibitors.
After an incubation time of 30 minutes at room temperature, the reactions were stopped by the addition of GRP-1 and PIP3-TAMRA probe (Echelon-Inc., Salt Lake City, Utah.) 100 nM and 5 nM final concentrations respectively.
The compound was serially diluted in 100% DMSO. The kinase reaction was incubated for 1 h at room temperature, and the reaction was terminated by the addition of PBS. IC50 values were subsequently determined using sigmoidal dose-response curve fit (variable slope).

H1048 = assay: CellTiter-Glo cell proliferation assay; assay type: cell-based; details: Homo sapiens, NCI-H1048, Lung(SC), Kinase-HET.1047H > R, HET.391I > M
H23 = assay: CellTiter-Glo cell proliferation assay; assay type: cell-based; details: Homo sapiens, NCI-H23, Lung(NSCLC), K-RAS
H1299 = assay: CellTiter-Glo cell proliferation assay; assay type: cell-based; details: Homo sapiens, NCI-H1299, Lung(NSCLC), N-RAS
H596 = assay: CellTiter-Glo cell proliferation assay; assay type: cell-based; details: Homo sapiens, NCI-H596, Lung(NSCLC), Helical-HET.545E > K, HET.997L > P
HS 578T-1x2 = assay: CellTiter-Glo cell proliferation assay; assay type: cell-based; details: Breast, WT
SW620 = assay: CellTiter-Glo cell proliferation assay; assay type: cell-based; details: Homo sapiens, SW-620, Colon, K-RAS
G22 = assay: CellTiter-Glo cell proliferation assay; assay type: cell-based; details: Glioma, PTEN
H1568 = assay: CellTiter-Glo cell proliferation assay; assay type: cell-based; details: NCI-H1568, Lung(NSCLC), WT
H650 = assay: CellTiter-Glo cell proliferation assay; assay type: cell-based; details: Homo sapiens, NCI-H650, Lung(NSCLC), K-RAS
H1703 = assay: CellTiter-Glo cell proliferation assay; assay type: cell-based; details: Homo sapiens, NCI-H1703, Lung(NSCLC), WT
MX-1 = assay: CellTiter-Glo cell proliferation assay; assay type: cell-based; details: Homo sapiens, MX1, Breast, PTEN
Procedure: Cell Culture Medium: RPMI or DMEM high glucose, 10% Fetal Bovine Serum, 2 mM L-Glutamine, P/S. Incubate O/N (overnight) at 37° C., 5% CO2.
Drug Addition to Cells, Cell Plate (1:10 dilution): Add 6 μl of media+compound directly to cells (54 μl of media on the cells already). Incubate 3 days at 37° C., 5% CO2 in an incubator that will not be opened often.
Day 5—Develop Plates, Thaw Cell Titer Glo Buffer at room temperature: Remove Cell Plates from 37° C. and equilibrate to room temperature for about 30 minutes. Add Cell Titer-Glo® Buffer to Cell Titer-Glo® Substrate (bottle to bottle). Add 30 μl Cell Titer-Glo® Reagent (Promega cat.#G7572) to each well of cells. Place on plate shaker for about 30 minutes. Read luminescence on Analyst HT Plate Reader (half second per well).

HT-29 = assay: CellTiter-Glo cell proliferation assay; assay type: cell-based; details: Homo sapiens, Colon, K-RAS
OVCAR3 = assay: CellTiter-Glo cell proliferation assay; assay type: cell-based; details: Homo sapiens, OVCAR-3, Ovarian, WT

## Cc1nc(-c2cn3c(n2)-c2ccc(-c4cnn(C(C)(C)C(N)=O)c4)cc2OCC3)n(C(C)C)n1 [GDC-0032, 2-(4-(2-(1-isopropyl-3-methyl-1H-1,2,4-triazol-5-yl)-5,6-dihydrobenzo[f]imidazo[1,2-d][1,4]oxazepin-9-yl)-1H-pyrazol-1-yl)-2-methylpropanamide]
A427
  EC50: 10000 nM
H460
  EC50: 603 nM
G96
  EC50: 201 nM
[1]
  tumor volume change: dose-dependent decrease in tumor volume
[2]
  tumor volume change: dose-dependent decrease in tumor volume
[3]; 25 mg/kg, end of treatment on day 21, versus vehicle
  tumor response: increased tumor regressions
[3]; PO daily (QD), 21 days, SCID beige mice
  tumor volume change: dose dependent decrease in tumor volume
[4]
  tumor volume change: dose-dependent decrease in tumor volume
[5]; doses <12.5 mg/kg, daily dosing for 14 days
  anti-tumor efficacy: not efficacious
[5]; highest dose tested (25 mg/kg), daily, 14 days
  anti-tumor response: tumor stasis
[6]; 22.5 mg/kg, after 10 days of treatment, versus vehicle
  tumor response: increased tumor regressions
[6]; PO daily (QD), 20 days, nude mice
  tumor volume change: dose dependent decrease in tumor volume
[6]; 5.0 mg/kg
  % TGI@ day 21: 57%
[6]; 10 mg/kg
  % TGI@ day 21: 83%
[6]; 20 mg/kg
  % TGI@ day 21: 83%
[7]; 25 mg/kg, end of treatment on day 7, versus vehicle
  tumor response: increased tumor regressions
[7]; PO daily (QD), 7 days
  tumor volume change: dose dependent decrease in tumor volume
22RV1
  EC50: 50 nM
SW1573
  EC50: 285 nM
H1793
  EC50: 2020 nM
ABC-1
  EC50: 234 nM
HCT116
  EC50: 897 nM
SF539
  EC50: 1880 nM
MDA-MB-436
  EC50: 4690 nM
HOP62
  EC50: 3090 nM
HCC-1428
  EC50: 10000 nM
H2030
  EC50: 2310 nM
TOV21GX1
  EC50: 10000 nM
HCC-1419
  EC50: 46 nM
A2058
  EC50: 9240 nM
PI3K alpha H1047R mutant
  PI3K alpha H1047R mutant: 0.4x
H1048
  EC50: 14 nM
H23
  EC50: 2740 nM
H1299
  EC50: 1720 nM
H596
  EC50: 58 nM
HS 578T-1x2
  EC50: 2070 nM
SW620
  EC50: 10000 nM
G22
  EC50: 6020 nM
H1568
  EC50: 10000 nM
H650
  EC50: 10000 nM
H1703
  EC50: 136 nM
MX-1
  EC50: 892 nM
HT-29
  EC50: 75 nM
OVCAR3
  EC50: 398 nM
